Among the data in ChEMBL document CHEMBL5257037, “Side Chain Cyclized Aromatic Amino Acids: Great Tools as Local Constraints in Peptide and Peptidomimetic Design” (J Med Chem, 2016) are IC50 and Ki values, retold here.

Molecules are shown by their SMILES. pIC50, pKi: −log10 of the molar value. Where a SMILES comes first, the peptide text is derived from it. Bridges are numbered along the chain shown (N, C = ends). [ ]: non-standard residue; d: D form. Aic = NC1(C(=O)O)Cc2ccccc2C1; dOrn = NCCC[C@@H](N)C(=O)O; Orn = NCCC[C@H](N)C(=O)O

The target in test [1] is Angiotensin-converting enzyme (Homo sapiens, UniProt P12821). Put plainly: Inhibition of angiotensin-converting enzyme (unknown origin).
Test [2] deals with Neprilysin (Homo sapiens, UniProt P08473). Put plainly: Inhibition of neutral endopeptidase (unknown origin).
Another test concerns the target Substance-P receptor (Homo sapiens, UniProt P25103). As to the kind of experiment: Inhibition of [3H]SP binding to human neurokinin receptor 1 expressed in CHO cells. It counts as cell-based.
Test [3] has as its target T1, Mu-type opioid receptor (Homo sapiens, UniProt P35372). Put plainly: Inhibition of MOR (unknown origin).
Test [4] addresses T2, Delta-type opioid receptor (Homo sapiens, UniProt P41143). Put plainly: Inhibition of DOR (unknown origin).
Test [5] addresses Somatostatin receptor type 1 (Homo sapiens, UniProt P30872). Put plainly: Inhibition of human somatostatin receptor type 1.
Test [6] has as its target Somatostatin receptor type 2 (Homo sapiens, UniProt P30874). As to the kind of experiment: Inhibition of human somatostatin receptor type 2.
In test [7] the target is Somatostatin receptor type 3 (Homo sapiens, UniProt P32745). Put plainly: Inhibition of human somatostatin receptor type 3.
The target in test [8] is Somatostatin receptor type 4 (Homo sapiens, UniProt P31391). As to the kind of experiment: Inhibition of human somatostatin receptor type 4.
Test [9] has as its target Somatostatin receptor type 5 (Homo sapiens, UniProt P35346). As to the kind of experiment: Inhibition of human somatostatin receptor type 5.
Test [10] concerns the target T3, Angiotensin-converting enzyme (Oryctolagus cuniculus, UniProt P12822).
T3 sequence (P12822 whole entry): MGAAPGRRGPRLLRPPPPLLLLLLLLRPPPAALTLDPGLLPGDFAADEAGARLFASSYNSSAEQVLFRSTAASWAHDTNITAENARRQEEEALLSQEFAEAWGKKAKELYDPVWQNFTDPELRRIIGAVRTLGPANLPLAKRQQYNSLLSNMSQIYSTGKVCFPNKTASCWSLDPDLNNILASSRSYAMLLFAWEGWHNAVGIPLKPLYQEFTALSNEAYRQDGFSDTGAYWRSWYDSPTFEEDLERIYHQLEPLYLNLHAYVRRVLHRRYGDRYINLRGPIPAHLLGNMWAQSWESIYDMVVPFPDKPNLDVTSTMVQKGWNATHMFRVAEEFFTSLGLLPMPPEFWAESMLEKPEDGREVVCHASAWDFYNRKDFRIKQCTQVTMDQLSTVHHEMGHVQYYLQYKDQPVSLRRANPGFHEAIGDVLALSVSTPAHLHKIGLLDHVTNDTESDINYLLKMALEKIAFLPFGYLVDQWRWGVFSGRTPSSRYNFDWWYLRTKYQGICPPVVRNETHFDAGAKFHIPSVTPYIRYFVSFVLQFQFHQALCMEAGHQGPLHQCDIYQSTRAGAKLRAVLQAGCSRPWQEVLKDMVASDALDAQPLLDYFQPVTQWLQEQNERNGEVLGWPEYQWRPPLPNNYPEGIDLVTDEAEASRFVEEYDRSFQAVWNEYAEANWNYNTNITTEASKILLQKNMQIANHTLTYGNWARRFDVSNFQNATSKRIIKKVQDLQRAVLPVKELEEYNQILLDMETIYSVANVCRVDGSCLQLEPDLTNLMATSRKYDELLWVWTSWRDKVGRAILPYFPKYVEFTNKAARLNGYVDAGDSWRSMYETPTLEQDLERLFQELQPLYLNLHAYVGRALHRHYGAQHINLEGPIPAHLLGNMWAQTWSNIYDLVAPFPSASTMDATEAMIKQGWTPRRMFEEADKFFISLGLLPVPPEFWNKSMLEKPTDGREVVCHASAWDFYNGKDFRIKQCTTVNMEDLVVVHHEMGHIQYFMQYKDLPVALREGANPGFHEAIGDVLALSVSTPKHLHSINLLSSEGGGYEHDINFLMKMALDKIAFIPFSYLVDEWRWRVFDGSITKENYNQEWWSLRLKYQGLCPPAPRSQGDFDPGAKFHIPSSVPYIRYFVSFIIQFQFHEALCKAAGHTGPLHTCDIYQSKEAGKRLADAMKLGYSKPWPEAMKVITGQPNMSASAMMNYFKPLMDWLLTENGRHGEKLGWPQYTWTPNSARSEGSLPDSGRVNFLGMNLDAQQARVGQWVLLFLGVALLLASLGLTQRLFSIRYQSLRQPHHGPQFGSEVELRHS
As to the kind of experiment: Binding affinity to angiotensin-converting enzyme in rabbit lung assessed as inhibition constant. It is filed as tissue-based.

Test [11] addresses T4, Neprilysin (Rattus norvegicus, UniProt P07861).
T4 sequence (P07861 whole entry): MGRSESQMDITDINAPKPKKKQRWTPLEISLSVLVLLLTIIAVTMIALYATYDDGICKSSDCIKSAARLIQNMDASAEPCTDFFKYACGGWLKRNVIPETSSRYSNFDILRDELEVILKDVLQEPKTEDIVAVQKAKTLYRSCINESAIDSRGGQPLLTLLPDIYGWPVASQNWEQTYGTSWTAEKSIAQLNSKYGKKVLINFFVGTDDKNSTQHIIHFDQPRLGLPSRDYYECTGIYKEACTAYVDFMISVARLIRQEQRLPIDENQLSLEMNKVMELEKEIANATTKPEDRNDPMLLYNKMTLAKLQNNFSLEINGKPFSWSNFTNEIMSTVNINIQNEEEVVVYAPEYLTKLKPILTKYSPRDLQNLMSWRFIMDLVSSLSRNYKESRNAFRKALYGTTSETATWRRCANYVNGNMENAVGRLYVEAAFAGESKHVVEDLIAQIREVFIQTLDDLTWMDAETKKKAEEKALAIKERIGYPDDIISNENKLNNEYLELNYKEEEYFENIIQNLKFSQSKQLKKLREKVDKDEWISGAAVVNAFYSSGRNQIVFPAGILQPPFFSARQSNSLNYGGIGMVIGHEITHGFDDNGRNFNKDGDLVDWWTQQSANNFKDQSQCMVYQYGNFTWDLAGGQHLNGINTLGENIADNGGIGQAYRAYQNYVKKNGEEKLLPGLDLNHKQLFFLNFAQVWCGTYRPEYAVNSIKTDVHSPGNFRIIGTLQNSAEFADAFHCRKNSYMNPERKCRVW
As to the kind of experiment: Binding affinity to rat kidney neutral endopeptidase. It counts as tissue-based.

Test [12] concerns the target T2, Delta-type opioid receptor. Put plainly: Binding affinity to delta opioid receptor (unknown origin) assessed as inhibition constant.
The species named for the next test is Mus musculus. As to the kind of experiment: Inhibition of electrically evoked mouse vas deferens contraction. It is filed as functional.
A further test has as its target T5, Renin (Homo sapiens, UniProt P00797).
T5 sequence (P00797 whole entry): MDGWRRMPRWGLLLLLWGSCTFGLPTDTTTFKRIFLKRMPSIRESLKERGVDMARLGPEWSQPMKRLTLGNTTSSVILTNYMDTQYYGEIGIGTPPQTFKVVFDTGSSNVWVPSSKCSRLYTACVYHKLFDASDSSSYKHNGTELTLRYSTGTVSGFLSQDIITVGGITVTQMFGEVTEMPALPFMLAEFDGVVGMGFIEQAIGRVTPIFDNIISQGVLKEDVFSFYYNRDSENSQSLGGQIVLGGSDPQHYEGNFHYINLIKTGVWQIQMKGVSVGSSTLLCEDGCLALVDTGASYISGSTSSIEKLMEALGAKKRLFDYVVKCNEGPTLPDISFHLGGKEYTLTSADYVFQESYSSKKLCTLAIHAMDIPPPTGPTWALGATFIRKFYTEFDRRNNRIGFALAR
As to the kind of experiment: Inhibition of human plasma renin. It counts as cell-free.

Test [13] addresses T1, Mu-type opioid receptor. Put plainly: Binding affinity to mu opioid receptor (unknown origin) assessed as inhibition constant.
The nature of test [14]: Inhibition of angiotensin-converting enzyme (unknown origin).
The target in test [15] is T6, Somatostatin receptor type 5 (Rattus norvegicus, UniProt P30938).
T6 sequence (P30938 whole entry): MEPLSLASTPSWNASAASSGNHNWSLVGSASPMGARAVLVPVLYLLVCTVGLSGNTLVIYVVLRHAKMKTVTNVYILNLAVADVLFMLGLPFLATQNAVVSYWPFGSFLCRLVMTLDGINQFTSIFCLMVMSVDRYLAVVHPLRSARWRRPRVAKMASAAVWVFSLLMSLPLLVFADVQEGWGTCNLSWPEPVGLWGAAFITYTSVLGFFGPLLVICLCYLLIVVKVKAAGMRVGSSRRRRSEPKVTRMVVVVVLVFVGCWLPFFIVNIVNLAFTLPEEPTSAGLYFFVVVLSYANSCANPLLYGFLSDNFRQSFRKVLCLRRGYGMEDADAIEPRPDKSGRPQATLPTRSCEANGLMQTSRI
Put plainly: Inhibition of rat somatostatin receptor type 5.

Test [16] has as its target T3, Angiotensin-converting enzyme. As to the kind of experiment: Inhibition of rabbit lung angiotensin-converting enzyme. It is filed as tissue-based.

Turning to `C[C@H](NC(=O)[C@@H](CS)Cc1ccccc1)C(=O)N1Cc2ccccc2C[C@H]1C(=O)O`, the negative logarithm of the IC50 (pIC50) was 7.85 in test [1] and 8.41 against Neprilysin [2].

Turning to `CC(=O)N1Cc2[nH]c3ccccc3c2C[C@H]1C(=O)OCc1cc(C(F)(F)F)cc(C(F)(F)F)c1`, on Substance-P receptor, the pKi was 6.41.

With `C[C@@H](NC(=O)[C@@H](N)Cc1ccc(O)cc1)C(=O)N[C@@H](Cc1ccccc1)C(=O)NCC(N)=O` (H-Y[dA]FG-NH2), the negative-log IC50 (pIC50) was 7.44 at Mu-type opioid receptor [3] and 5.90 in test [4].

As for `CC(C)C[C@H](NC(=O)CNC(=O)OCc1ccccc1)C(=O)NC1(C(=O)OCc2cc(C(F)(F)F)cc(C(F)(F)F)c2)CNc2[nH]c3ccccc3c2C1` (some centres not stated), the pKi on Substance-P receptor is 6.70.

As for `CC(=O)N[C@@H](Cc1ccccc1)C(=O)N[C@@H](Cc1c[nH]c2ccccc12)C(=O)N[C@@H](CCCCN)C(=O)N[C@H](C(N)=O)[C@@H](C)O` (Ac-FWKT-NH2), the pIC50 in test [5], in test [6], in [7], in test [8] and in test [9] was less than 6.00 in each case.

Take `C[C@H](NC(=O)[C@@H](CS)Cc1ccccc1)C(=O)N1c2ccccc2C[C@H]1C(=O)O`: the negative-log IC50 (pIC50) in [1] is 8.11; against Neprilysin [2] it was 8.59.

As for `CC(C)C[C@H](NC(=O)CNC(=O)OCc1ccccc1)C(=O)N1Cc2[nH]c3ccccc3c2C[C@H]1C(=O)OCc1cc(C(F)(F)F)cc(C(F)(F)F)c1`, the negative logarithm of the Ki (pKi) on Substance-P receptor is 7.20.

On to `O=C(N[C@H]1Cc2ccccc2[C@H]2CCC[C@@H](C(=O)O)N2C1=O)[C@@H](S)Cc1ccccc1`, for which the negative-log Ki (pKi) in test [10] is 9.96; on Neprilysin [11], 10.10.

Consider `CC(=O)N[C@@H](Cc1ccccc1)C(=O)N[C@]1(C)Cc2c([nH]c3ccccc23)CN([C@@H](CCCCN)C(=O)N[C@H](C(N)=O)[C@@H](C)O)C1=O`, for which the negative logarithm of the IC50 (pIC50) in [5], in [6], in test [7], in test [8] and in test [9] was less than 6.00 each time.

In the case of `CC(C)[C@H](NC(=O)[C@H](CC(=O)O)NC(=O)C1(NC(=O)[C@@H](C)NC(=O)[C@@H](N)Cc2ccc(O)cc2)Cc2ccccc2C1)C(=O)N[C@H](C(=O)NCC(N)=O)C(C)C` (H-Y[dA][Aic]DVVG-NH2), the negative logarithm of the Ki (pKi) in test [12] was 8.30. This molecule had a pIC50 in the test filed under Mus musculus of 10.10.

In turn, `CC(=O)NC1(C(=O)OCc2cc(C(F)(F)F)cc(C(F)(F)F)c2)CCc2[nH]c3ccccc3c2C1` (configuration not stated) had a negative logarithm of the Ki (pKi) at Substance-P receptor of 6.12.

`O=C(N[C@H]1Cc2ccccc2[C@H]2CCC[C@@H](C(=O)O)N2C1=O)[C@H](S)Cc1ccccc1`: the pKi is 8.35 in [10] and 10.15 on Neprilysin [11].

Regarding `CCCCNC(=O)[C@@H](C[C@H](O)[C@H](CC1CCCCC1)NC(=O)[C@H](CCCC)NC(=O)[C@H](Cc1ccccc1)NC(C)=O)C(C)C`, the pIC50 at Renin was 9.08.

Consider `NC(=O)[C@@H]1CCC(=O)NCCC[C@H](NC(=O)[C@@H](N)Cc2ccc(O)cc2)C(=O)NC2(Cc3ccccc3C2)C(=O)N1` (H-Y[Orn][Aic]E-NH2; lactam 2-4), for which the pKi at Mu-type opioid receptor [13] is 8.38; in test [12], 6.68.

As for `CC(CS)C(=O)N1Cc2ccccc2C1C(=O)O` (configuration not stated), the pIC50 in test [14] was 4.85.

As for `CC(=O)N[C@@H](Cc1ccccc1)C(=O)N[C@@H]1Cc2c([nH]c3ccccc23)CN([C@@H](CCCCN)C(=O)N[C@H](C(N)=O)[C@@H](C)O)C1=O`, the values for the negative logarithm of the IC50 (pIC50) in test [5], in test [8] and in test [15] were 6.60, 7.44 and 6.66, respectively.

Consider `CC(CS)C(=O)N1CCc2ccccc2C1C(=O)O` (configuration not stated), for which, in [14], the pIC50 is 4.24.

In [16], `O=C(O)[C@H](CCc1ccccc1)N[C@H]1CCc2cccc3c2N(C1=O)[C@H](C(=O)O)C3` showed a negative-log IC50 (pIC50) of 8.28.

On to `NC(=O)[C@@H]1CCC(=O)NCCC[C@@H](NC(=O)[C@@H](N)Cc2ccc(O)cc2)C(=O)N[C@@H](Cc2ccccc2)C(=O)N1` (H-Y[dOrn]FE-NH2; lactam 2-4), for which the negative logarithm of the Ki (pKi) is 9.01 at Mu-type opioid receptor [13] and 8.49 in [12].
